Experimental data reported in patent US20220313701A1, “MODULATORS OF TREX1” (Constellation Pharmaceuticals, Inc., priority 2019, published 2022).

Key:
full length human TREX1 = target: T1, full length human TREX1 (Homo sapiens, UniProt Q9NSU2); experiment: TREX1 Biochemical Assay (fluorescence assay, degradation of dsDNA substrate); details: 150 pM TREX1, 60 nM dsDNA substrate, 25 minutes at room temperature
T1 construct: N-terminally His-Tev tagged full length human TREX1; His-Tev (His tag with TEV site) (N); made in house; host or cells: E. coli
T1 sequence (Q9NSU2 1-314): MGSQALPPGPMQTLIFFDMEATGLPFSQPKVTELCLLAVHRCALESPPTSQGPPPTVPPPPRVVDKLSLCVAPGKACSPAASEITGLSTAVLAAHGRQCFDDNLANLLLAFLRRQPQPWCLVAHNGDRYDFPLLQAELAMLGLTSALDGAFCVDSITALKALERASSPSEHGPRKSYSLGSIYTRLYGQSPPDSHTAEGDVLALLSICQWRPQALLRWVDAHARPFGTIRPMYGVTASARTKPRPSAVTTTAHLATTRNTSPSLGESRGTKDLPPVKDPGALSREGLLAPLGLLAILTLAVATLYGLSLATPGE
Method in brief: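 N-terminally His-Tev-tagged enzyme expressed in E. coli, 150 pM, with 60 nM dual-labelled dsDNA (TEX615/quencher) in pH 7.4 Tris buffer with MgCl2, 1% DMSO; 10-point dose-response, 25 min at room temperature, then EDTA quench. Fluorescence at 615 nm (excitation 570 nm); IC50 from four-parameter fit against pre-quenched and no-inhibitor controls.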

[1] = target: T2, human TREX2 (residues M44-A279) (Homo sapiens, UniProt Q9BQ50); experiment: TREX2 Biochemical Assay (fluorescence assay, degradation of dsDNA substrate); details: 2.5 nM TREX2, 60 nM dsDNA substrate, 25 minutes at room temperature
T2 construct: human TREX2 (residues M44-A279, expressed in E. coli); His-Tev (His tag with TEV site) (N); made in house; host or cells: E. coli
T2 sequence (Q9BQ50 44-279 isoform Q9BQ50-1): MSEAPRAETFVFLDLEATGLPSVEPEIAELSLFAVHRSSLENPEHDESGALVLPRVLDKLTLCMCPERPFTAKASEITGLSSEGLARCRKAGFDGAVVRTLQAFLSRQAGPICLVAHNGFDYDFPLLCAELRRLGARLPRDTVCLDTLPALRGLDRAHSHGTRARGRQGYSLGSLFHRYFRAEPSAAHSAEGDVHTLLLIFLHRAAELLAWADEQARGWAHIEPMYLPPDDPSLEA
Method in brief: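 Final conditions: 2.5 nM His-Tev-tagged TREX2 (E. coli-expressed), 60 nM fluorophore/quencher-labelled dsDNA, 50 mM Tris pH 7.4, 150 mM NaCl, 100 mM MgCl2, 1% DMSO; 10-point compound dose-response. Incubated 25 min at room temperature, then EDTA-quenched; fluorescence read at ex 570/em 615 nm. IC50 from four-parameter fit against pre-quenched and no-inhibitor controls.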

IC50 (full length human TREX1)	IC50 [1]	SMILES
1 to 10 µM	> 100 µM	Cc1nc(N2CCC(O)(c3ccc(F)c(F)c3)CC2)cc(N2CCOC[C@@H]2c2ccccc2)n1 [Example 105, (S)-4-(3,4-difluorophenyl)-1-(2-methyl-6-(3-phenylmorpholino)pyrimidin-4-yl)piperidin-4-ol]
1 to 10 µM	> 100 µM	Cc1nc(N2CCC(O)(c3ccc(F)c(F)c3)CC2)cc(-n2ccnc2-c2ccccn2)n1 [Example 106, 4-(3,4-difluorophenyl)-1-(2-methyl-6-(2-(pyridin-2-yl)-1H-imidazol-1-yl)pyrimidin-4-yl)piperidin-4-ol]
1 to 10 µM	> 100 µM	Cc1nc(N2CCC(O)(c3ccc(F)c(F)c3)CC2)cc(-n2c(C)cnc2-c2ccccn2)n1 [Example 107, 4-(3,4-difluorophenyl)-1-(2-methyl-6-(5-methyl-2-(pyridin-2-yl)-1H-imidazol-1-yl)pyrimidin-4-yl)piperidin-4-ol]
0.1 to 1 µM	> 100 µM	Cc1nc(N2CCC(O)(c3ccc(F)c(F)c3)CC2)cc(N(C)C2(c3ccccn3)CC2)n1 [Example 108, 4-(3,4-difluorophenyl)-1-(2-methyl-6-(methyl(1-(pyridin-2-yl)cyclopropyl)amino)pyrimidin-4-yl)piperidin-4-ol]
